Reference: article PMC10384011, “m-Terphenylamines, Acting as Selective COX-1 Inhibitors, Block Microglia Inflammatory Response and Exert Neuroprotective Activity” (Molecules, 2023)

What was measured:
[1] = target: T1, human COX-2 (Homo sapiens, UniProt P35354); assay: Cyclooxygenase colorimetric inhibitor screening assay, COX-2; assay type: biochemical; settings: human COX-2, colorimetric kit; read-out: hCOX-2; IC50;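 also: peroxidase activity of COX-2 followed colorimetrically through formation of oxidized TMPD at 590 nm, with arachidonic acid as substrate, compounds tested from 0.001 to 50 µM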
T1 construct: purchased Cayman Chemicals 701050
T1 sequence (P35354 18-604): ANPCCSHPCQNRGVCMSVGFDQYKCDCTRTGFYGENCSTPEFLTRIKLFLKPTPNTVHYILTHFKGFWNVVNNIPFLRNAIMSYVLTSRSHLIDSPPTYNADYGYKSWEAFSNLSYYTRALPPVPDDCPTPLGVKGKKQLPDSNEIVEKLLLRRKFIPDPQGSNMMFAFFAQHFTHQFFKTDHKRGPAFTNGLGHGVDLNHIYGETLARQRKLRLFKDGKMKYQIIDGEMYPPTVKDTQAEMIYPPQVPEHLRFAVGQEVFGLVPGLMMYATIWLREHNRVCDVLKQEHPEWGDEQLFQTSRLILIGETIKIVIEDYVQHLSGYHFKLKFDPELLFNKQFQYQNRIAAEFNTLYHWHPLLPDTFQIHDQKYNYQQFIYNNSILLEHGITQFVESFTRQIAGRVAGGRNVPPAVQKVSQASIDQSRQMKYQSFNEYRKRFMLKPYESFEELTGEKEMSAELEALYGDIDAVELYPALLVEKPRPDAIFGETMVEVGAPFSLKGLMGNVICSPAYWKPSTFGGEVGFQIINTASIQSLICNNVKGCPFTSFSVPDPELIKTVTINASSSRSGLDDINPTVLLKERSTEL
Description: (§1) Newly synthesized compounds were evaluated for their ability to inhibit ovine COX-1 or human COX-2 enzyme by measuring the extent (%) of enzyme activity inhibition at different concentrations (0.001, 0.01, 0.1, 1, 10, 50 μM). […] The assay kit measures the peroxidase component of COXs that is assayed colorimetrically by monitoring the appearance of oxidized N,N,N′,N′-tetramethyl-p-phenylenediamine (TMPD) a λ = 590 nm. […] Stock solutions of test compounds were dissolved in DMSO.

[2] = target: T2, ovine COX-1 (Ovis aries, UniProt P05979); assay: Cyclooxygenase colorimetric inhibitor screening assay, COX-1; assay type: biochemical;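 also: COX peroxidase activity read colorimetrically as oxidized TMPD at 590 nm, arachidonic acid as substrate, inhibitors tested at 0.001–50 µM from DMSO stocks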
T2 construct: purchased Cayman Chemicals 701050
T2 sequence (P05979 25-600): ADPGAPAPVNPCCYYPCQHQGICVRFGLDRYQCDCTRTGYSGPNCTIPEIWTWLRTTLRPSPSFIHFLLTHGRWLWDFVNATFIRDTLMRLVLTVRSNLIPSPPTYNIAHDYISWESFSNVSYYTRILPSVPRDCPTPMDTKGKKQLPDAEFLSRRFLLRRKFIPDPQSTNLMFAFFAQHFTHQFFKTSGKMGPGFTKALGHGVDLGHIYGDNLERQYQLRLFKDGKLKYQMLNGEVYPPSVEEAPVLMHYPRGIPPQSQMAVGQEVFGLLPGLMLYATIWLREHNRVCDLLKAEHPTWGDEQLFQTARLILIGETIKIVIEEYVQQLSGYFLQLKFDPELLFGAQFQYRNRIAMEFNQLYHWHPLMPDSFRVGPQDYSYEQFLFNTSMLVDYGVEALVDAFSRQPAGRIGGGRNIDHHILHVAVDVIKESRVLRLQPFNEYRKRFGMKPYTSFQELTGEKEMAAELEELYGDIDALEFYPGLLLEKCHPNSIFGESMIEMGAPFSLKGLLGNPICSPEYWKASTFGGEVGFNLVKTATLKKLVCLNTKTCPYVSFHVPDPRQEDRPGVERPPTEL
Description: as §1

[3] = tested on: BV2 microglia cells; assay: LPS-induced activated (ramified) phenotype of BV2 microglia; assay type: cell-based; settings: 3 μM, LPS 1 μg/mL, 24 h
Description: Next, we set out to study the changes in microglia phenotype under this toxicity protocol. As mentioned above, microglia are comprised of variable morphology cells that are always adapting to the surrounding media and, therefore, to physiopathological conditions. Indeed, morphological appearance is well correlated with the different states of microglia activation. The microglia-activated phenotype (M1), which is the classical state of this kind of cell in response to proinflammatory insults such as LPS, is linked with the overexpression of a plethora of cytokines and inflammatory markers, namely TNF, IL-1β, IL-6, MCP-1 or CD11b. All of these markers are commonly associated with morphological changes towards an amoeboid phenotype in primary cultures or in in vivo studies. Nevertheless, it has been recently described that BV2 microglia, as well as macrophages, turn from rounded to spindle-shaped or multipolar phenotypes in response to various M1 proinflammatory stimuli such as LPS/IFNγ or spinal cord injury conditioned media. In this context, we assessed the ability of our compounds to prevent the morphological changes induced by LPS by analyzing the percentage of BV2 ramified cells (multipolar or spindle) over the total BV2 per field following cell incubation with our compounds and 1 μg/mL LPS for 24 h.
Cultures were seeded into flasks containing supplemented medium and kept at 37 °C in a humidified atmosphere of 5% CO2 and 95% air. For assays, BV-2 cells were subcultured in 48-well plates at a seeding density of 1 × 10^5 cells per well. Cells were treated with LPS (Sigma-Aldrich, Madrid, Spain) for 24 or 48 h before confluence in RPMI with 1% FBS.

Cc1ccc(-c2cc(N)cc(-c3ccccc3)c2)cc1 [Compound 3b, 4-Methyl-5′-amino-m-terphenyl]
IC50 [1]: > 50 µM | inhibition at 50 µM ([2]; ovine COX-1, 50 µM, read-out: oCOX-1, % Inhibition at 50 µM (converted)): 83% | IC50 ([2]; ovine COX-1, colorimetric kit, triplicate, read-out: oCOX-1, IC50): 1100 ± 180 nM | COX-1 selectivity (in words) ([2]; ovine COX-1 vs human COX-2): complete selectivity towards COX-1 | Reduction of the number of BV2 ramified cells [3]: 60%
